Among the data in PubChem BioAssay (NCI) are GI50 and TGI values, retold here.

Among the test systems are A498 renal; MCF7 breast; NCI-H23 lung; OVCAR-3 ovarian; OVCAR-8 ovarian; RXF 393 renal; SF-539 CNS; SK-MEL-2 melanoma; SNB-19 CNS; SW-620 colon.
Experiment in all cases: DTP human tumour cell line panel, 48 h

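Following 48 hours of exposure in 96-well plates, responses at five concentrations were used to interpolate endpoints linearly. Here, GI50 denotes the concentration required for 50% inhibition of growth. TGI: total growth inhibition.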

Consider `COC(=O)C1C(C(=O)O)C2(c3ccccc3)C(=O)C1(c1ccccc1)C(c1ccc(OC)cc1)=C2c1ccc(OC)cc1` (centres undefined), for which the GI50 is 23.2 µM in the experiment with A498 renal; 20.3 µM with MCF7 breast; 17.5 µM in the experiment with NCI-H23 lung; 17.3 µM in the experiment on OVCAR-3 ovarian; 15.9 µM with OVCAR-8 ovarian; 16.1 µM in the experiment on RXF 393 renal. In addition, the GI50 in the experiment on SF-539 CNS is 17.7 µM; in the experiment with SK-MEL-2 melanoma, 20.5 µM; with SNB-19 CNS, 22.4 µM; in the experiment with SW-620 colon, 23.2 µM. For the same compound, the TGI in the experiment on A498 renal was 46.2 µM; in the experiment on MCF7 breast, 38.9 µM; in the experiment on NCI-H23 lung, 33.7 µM; in the experiment with OVCAR-3 ovarian it was 41.2 µM; with OVCAR-8 ovarian it was 30.8 µM; in the experiment with RXF 393 renal it was 34.8 µM. Moreover, the TGI in the experiment with SF-539 CNS turned out to be 34 µM; in the experiment on SK-MEL-2 melanoma, 44 µM; in the experiment on SNB-19 CNS, 77.3 µM; with SW-620 colon it was 46.6 µM.

As for `CO/N=C(/C)COc1ccc2c(c1)oc(=O)c1cc(OC)ccc12`, the GI50 in the experiment on A498 renal, with MCF7 breast, in the experiment on NCI-H23 lung, with OVCAR-3 ovarian, with OVCAR-8 ovarian and with RXF 393 renal was more than 100 µM in each case. Also, the GI50 in the experiment with SF-539 CNS, in the experiment on SK-MEL-2 melanoma, in the experiment on SNB-19 CNS and in the experiment with SW-620 colon was more than 100 µM in each case. The concentration for total growth inhibition (TGI) in the experiment with A498 renal, with MCF7 breast, in the experiment on NCI-H23 lung, with OVCAR-3 ovarian, with OVCAR-8 ovarian and with RXF 393 renal was more than 100 µM in each case. Besides, the concentration for total growth inhibition (TGI) in the experiment on SF-539 CNS, with SK-MEL-2 melanoma, in the experiment on SNB-19 CNS and with SW-620 colon was more than 100 µM in each case.

Turning to `COc1cc(/C=C2\CC3C4CCC5=CC(=O)CC[C@]5(C)C4CC[C@]3(C)C2=O)ccc1OCCN1CCCC1` (some centres undefined), the GI50 in the experiment with A498 renal was 5.05 µM; in the experiment on MCF7 breast, 4.07 µM; with NCI-H23 lung, 3.31 µM; in the experiment with OVCAR-3 ovarian, 2.37 µM; in the experiment with OVCAR-8 ovarian, 3.4 µM; in the experiment with RXF 393 renal it was 2.24 µM. Also, the GI50 with SF-539 CNS was 1.78 µM; in the experiment with SK-MEL-2 melanoma it was 4.21 µM; in the experiment with SNB-19 CNS it was 4.16 µM; with SW-620 colon, 3.09 µM. For the same compound, the TGI is 10.6 µM in the experiment on A498 renal; more than 45.3 µM in the experiment with MCF7 breast; 13.4 µM in the experiment with NCI-H23 lung; 6.01 µM with OVCAR-3 ovarian; 13.5 µM with OVCAR-8 ovarian; 5.41 µM in the experiment on RXF 393 renal. Besides, the TGI in the experiment with SF-539 CNS came to 3.67 µM; in the experiment on SK-MEL-2 melanoma, 14.8 µM; in the experiment with SNB-19 CNS, 18.8 µM; in the experiment with SW-620 colon, 11.5 µM.

For `CCN1CCN(Cc2ccc(Nc3ncc(F)c(-c4cc(F)c5nc(C)n(C(C)C)c5c4)n3)nc2)CC1`, the GI50 was 1.05 µM in the experiment on A498 renal; 0.0241 µM with MCF7 breast; 3.26 µM with NCI-H23 lung; 6.34 µM with OVCAR-3 ovarian; 9.58 µM with OVCAR-8 ovarian; 0.389 µM in the experiment with RXF 393 renal. Moreover, the GI50 in the experiment on SF-539 CNS is 7.39 µM; in the experiment with SK-MEL-2 melanoma it was more than 50 µM; with SNB-19 CNS, 5.48 µM; in the experiment on SW-620 colon, 0.192 µM. Moreover, the TGI in the experiment on A498 renal was 50 µM; with MCF7 breast, 10.4 µM; in the experiment with NCI-H23 lung it was 15.2 µM; in the experiment on OVCAR-3 ovarian, 13.5 µM; with OVCAR-8 ovarian it was 26.2 µM; in the experiment on RXF 393 renal it was 8.34 µM. The total growth inhibition concentration (TGI) was 15.7 µM in the experiment with SF-539 CNS, more than 50 µM with SK-MEL-2 melanoma, 12.4 µM in the experiment with SNB-19 CNS and 11.9 µM in the experiment on SW-620 colon.

In the case of `Cc1nc2ccc(-n3ncc(C(=O)c4cc5ccccc5[nH]4)c3N)cc2[nH]1`, the GI50 with A498 renal is 0.496 µM; with MCF7 breast, 4.52 µM; in the experiment on NCI-H23 lung it was 15.9 µM; in the experiment with OVCAR-3 ovarian, 11.2 µM; in the experiment on OVCAR-8 ovarian, 7.08 µM; in the experiment on RXF 393 renal, 2.47 µM. Further, the GI50 in the experiment with SF-539 CNS was 1.17 µM; in the experiment on SK-MEL-2 melanoma, 25.9 µM; in the experiment on SNB-19 CNS it was 15.4 µM; in the experiment with SW-620 colon, 7.78 µM. In addition, the TGI was 54.3 µM in the experiment with A498 renal; more than 100 µM with MCF7 breast; more than 100 µM in the experiment on NCI-H23 lung; more than 100 µM in the experiment on OVCAR-3 ovarian; more than 100 µM with OVCAR-8 ovarian; 15.7 µM in the experiment with RXF 393 renal. Also, the TGI was 10.9 µM in the experiment with SF-539 CNS, 88.5 µM with SK-MEL-2 melanoma, more than 100 µM with SNB-19 CNS and more than 100 µM in the experiment with SW-620 colon.

As for `CCOC(=O)c1c(C)n([O-])c2cc(F)c(F)cc2[n+]1=O`, the GI50 in the experiment with A498 renal is 15.9 µM; with MCF7 breast, 4.32 µM; with NCI-H23 lung, 1.88 µM; in the experiment with OVCAR-3 ovarian, 1.1 µM; in the experiment on OVCAR-8 ovarian, 0.88 µM; with RXF 393 renal, 1.8 µM. Also, the GI50 is 3.91 µM with SF-539 CNS, 2.8 µM in the experiment on SK-MEL-2 melanoma, 1.53 µM with SNB-19 CNS and 0.428 µM in the experiment with SW-620 colon. The total growth inhibition concentration (TGI) was 30 µM in the experiment with A498 renal; more than 37.4 µM with MCF7 breast; 3.78 µM with NCI-H23 lung; 2.42 µM in the experiment on OVCAR-3 ovarian; 2.47 µM with OVCAR-8 ovarian; 5.76 µM with RXF 393 renal. In addition, the TGI in the experiment with SF-539 CNS came out at 8.84 µM; in the experiment with SNB-19 CNS, 2.86 µM; in the experiment with SW-620 colon it was 1.57 µM.

For `Clc1nc(Cl)c2ncn(-c3ccccc3)c2n1`, the GI50 was 12 µM with A498 renal; 4.09 µM in the experiment on MCF7 breast; 2.14 µM in the experiment with NCI-H23 lung; 1.69 µM with OVCAR-3 ovarian; 4.4 µM in the experiment on OVCAR-8 ovarian; 5.66 µM in the experiment with RXF 393 renal. Also, the GI50 with SF-539 CNS is 10.6 µM; in the experiment with SK-MEL-2 melanoma, 13.8 µM; with SNB-19 CNS, 10.7 µM; in the experiment on SW-620 colon, 2.08 µM. Besides, the TGI in the experiment with A498 renal amounted to 25 µM; with MCF7 breast, 24.3 µM; in the experiment with NCI-H23 lung, 4.84 µM; in the experiment on OVCAR-3 ovarian, 3.46 µM; with OVCAR-8 ovarian, 19 µM; in the experiment on RXF 393 renal it was 18.8 µM. Further, the TGI in the experiment on SF-539 CNS was 27.3 µM; in the experiment on SK-MEL-2 melanoma, 27.1 µM; in the experiment on SNB-19 CNS it was 23.9 µM; in the experiment on SW-620 colon, 5.74 µM.
